According to patent US20150038707A1, “PROCESS FOR MAKING CGRP RECEPTOR ANTAGONISTS” (Merck Sharp & Dohme Corp., priority 2012, published 2015):

Key:
[1] = tested on: An. Vestitipennis; settings: stated as identical to night one of compound 1405; cited from earlier work
[2] = tested on: Ae. aegypti Houston strain (pyrethroid susceptible); assay: Toxicity assay on treated netting (Example 7), Houston strain; type: in vivo
Description: (§1) Several compounds were tested to determine their toxic effect on Ae. aegypti mosquitoes. Three mosquito strains were tested—Houston which is pyrethroid susceptible, That which is pyrethroid tolerant and Isla Mujer which is metabolically pyrethroid resistant.
(§2) The toxicity assay involved a single chamber to which treated netting was added. Twenty (20) mosquitoes were transferred to the chamber. After 1 hour, the number of knocked down mosquitoes was recorded and all mosquitoes were transferred to holding cartoons. The mosquitoes were given a 10% sucrose-soaked cotton ball and returned to the insectary. Mortaility was measured after 24 hours. A control assay using acetone-treated netting was used. Six replicates were performed at each treatment concentration.

[3] = tested on: Ae. Aegypti, Isla Mujer strain (metabolically pyrethroid resistant); assay: Contact irritancy on metabolically resistant mosquitoes (Example 5); type: in vivo
Description: (§3) Four compounds of formula (I) were tested for contact irritancy (i.e., movement away from the source after physical contact) at low doses on female Aedes aegypti (Thailand strain) mosquitoes. The contact irritant response was determined by use of the contact irritant assay disclosed by Grieco et al. in “A New Classification System for the Actions of IRS Chemicals Traditionally Used for Malaria Control,” Plos One, Issue 8 (2007) (available at www.plosone.org). The assay used was a cylindrical assembly that included a metal treatment end to which 10 mosquitoes were introduced and a clear receiving chamber. The treatment end included a netting strip (nylon organdy) that was treated with the insecticide of interest at the relevant dose. A butterfly valve separated the treatment end from the remainder of the assembly.
(§4) Each composition was applied to the netting strip at a varied dose via a 1.5 ml acetone solution. Four (4) treatment concentrations were used—0.0025 nmol/cm^2, 0.025 nmol/cm^2, 0.25 nmol/cm^2 and 2.5 nmol/cm^2. Netting was allowed to dry for 15 minutes prior to placement in the cylinder. Control assays were performed with netting treated with acetone only.
(§5) For each run, 10 mosquitoes were transferred into the treatment end of the assembly and, after 30 seconds, the butterfly valve was opened. The valve was closed after 10 minutes and the number of mosquitoes in the clear end (i.e., the number of escaped mosquitoes) was tested.
(§6) The contact irritancy protocol of Example 2 was used to determine contact irritancy against mosquitoes (Ae. Aegypti) that had acquired metabolic resistance against pyrethroids. Alphacypermethrin and transfluthrin were also tested. Three mosquito strains were tested—Houston which is pyrethroid susceptible, That which is pyrethroid tolerant and Isla Mujer which is metabolically pyrethroid resistant.

[4] = tested on: Ae. Aegypti strains Houston, That and Isla Mujer; assay: Spatial repellency on metabolically resistant mosquitoes (Example 6); type: in vivo
Description: (§7) The four compounds of formula I described in Example 2 were tested for spatial repellency (directed movement away from the chemical source without the insect making physical contact with the treated surface) at low doses on female Aedes aegypti (Thailand strain) mosquitoes. The spatial repellency response was determined by use of the spatial repellency assay disclosed by Grieco et al. in “A New Classification System for the Actions of IRS Chemicals Traditionally Used for Malaria Control” in Plos One, Issue 8 (2007) (available at www.plosone.org) which is incorporated herein by reference for all relevant and consistent purposes. The assay used was a cylindrical assembly that included a treatment chamber at one end and a control chamber at the other end. The treatment chamber included a netting strip (nylon organdy) that was treated with the insecticide of interest at the relevant dose. The treatment chamber and control chamber were connected by a clear cylinder and were separated from the clear cylinder by butterfly valves. Twenty (20) mosquitoes were introduced into the clear central chamber and the butterfly valves were opened after 30 seconds. After 10 minutes, the valves were closed and the number of mosquitoes in each chamber was counted.
as §6, with “spatial repellency” for “contact irritancy”, “3” for “2”, “DDT” for “Alphacypermethrin”

[5] = tested on: Ae. aegypti Isla mujeres strain (metabolically pyrethroid resistant); assay: Toxicity assay on treated netting (Example 7), Isla mujeres strain; type: in vivo
Description: as §1, §2

[6] = tested on: Ae. aegypti Thai strain (pyrethroid tolerant); assay: Toxicity assay on treated netting (Example 7), Thai strain; type: in vivo
Description: as §1, §2

[7] = tested on: female Aedes aegypti (Thailand strain) mosquitoes; assay: Contact irritancy assay on mosquitoes (Example 2); type: in vivo; settings: netting treated at 0.0025-2.5 nmol/cm^2; 10 minutes
Description: as §3, §4, §5

[8] = tested on: Ae. Aegypti, That strain (pyrethroid tolerant); assay: Contact irritancy on pyrethroid tolerant mosquitoes (Example 5); type: in vivo
Description: as §3, §4, §5, §6

[9] = tested on: female Aedes aegypti (Thailand strain) mosquitoes; assay: Contact irritancy and spatial repellency screening (Example 4); type: in vivo; settings: Dosage 25 nmol/cm^2; mapped with 3000 other compounds
Description: as §3, §7
Dosage was 25 nmol/cm^2. Several known compounds were also mapped for comparison—alphacypermethrin, cypermethrin, propoxur, bendiocarb, permethrin, SS220, DDT, deet and chlorpyrifos.

[10] = tested on: female Aedes aegypti (Thailand strain) mosquitoes; assay: Spatial repellency assay on mosquitoes (Example 3); type: in vivo; settings: netting treated at 0.0025-2.5 nmol/cm^2
Description: as §7
The compositions were applied to the net strips by the same methods and at the same concentrations as described in Example 2 above. […]

[11] = Dose 0.025 nm/cm^2, Time 1 hour
[12] = Dose 0.025 nm/cm^2, Time 24 hours
[13] = Dose 0.05 nm/cm^2, Time 24 hours
[14] = Dose 0.0725 nm/cm^2, Time 1 hour
[15] = Dose 0.0725 nm/cm^2, Time 24 hours
[16] = Dose 0.1 nm/cm^2, Time 24 hours
[17] = Dose 0.125 nm/cm^2, Time 1 hour
[18] = Dose 0.125 nm/cm^2, Time 24 hours
[19] = Dose 0.2 nm/cm^2, Time 24 hours
[20] = Dose 0.25 nm/cm^2, Time 24 hours
[21] = Dose 2.5 nm/cm^2, Time 24 hours

Clc1ccc(C(c2ccc(Cl)cc2)C(Cl)(Cl)Cl)cc1 [DDT, dichlorodiphenyltrichloroethane]
reduction in entering populations observed with DDT [1]: 97%

CC1(C)C(C=C(F)F)C1C(=O)OCc1ccc(F)c(C(F)(F)F)c1F (stereo not shown) [Compound 1403]
Houston (% dead (SE)) [2, 11]: 11.76%
Houston (% dead (SE)) [2, 12]: 15.57%
Houston (% dead (SE)) ([2]; Dose 0.05 nm/cm^2, Time 1 hour): 51.3%
Houston (% dead (SE)) [2, 13]: 41.18%
Houston (% dead (SE)) [2, 14]: 100%
Houston (% dead (SE)) [2, 15]: 100%
Houston (% dead (SE)) ([2]; Dose 0.1 nm/cm^2, Time 1 hour): 100%
Houston (% dead (SE)) [2, 16]: 100%
Houston (% dead (SE)) [2, 17]: 100%
Houston (% dead (SE)) [2, 18]: 100%
Houston (% dead (SE)) ([2]; Dose 0.2 nm/cm^2, Time 1 hour): 100%
Houston (% dead (SE)) [2, 19]: 100%
Houston (% dead (SE)) ([2]; Dose 0.25 nm/cm^2, Time 1 hour): 100%
Houston (% dead (SE)) [2, 20]: 100%
Houston (% dead (SE)) ([2]; Dose 2.5 nm/cm^2, Time 1 hour): 100%
Houston (% dead (SE)) [2, 21]: 100%
contact irritancy, resistant strain (FIG. 4) [3]: effective in resistant strains
spatial repellency, all strains (FIG. 5) [4]: spatial repellants for all strains
Isla mujeres (% dead (SE)) [5, 11]: 0%
Isla mujeres (% dead (SE)) [5, 12]: 1.58%
Isla mujeres (% dead (SE)) ([5]; Dose 0.05 nm/cm^2, Time 1 hour): 0%
Isla mujeres (% dead (SE)) [5, 13]: 5.93%
Isla mujeres (% dead (SE)) [5, 14]: 0%
Isla mujeres (% dead (SE)) [5, 15]: 3.70%
Isla mujeres (% dead (SE)) ([5]; Dose 0.1 nm/cm^2, Time 1 hour): 0%
Isla mujeres (% dead (SE)) [5, 16]: 5.00%
Isla mujeres (% dead (SE)) [5, 17]: 0%
Isla mujeres (% dead (SE)) [5, 18]: 6.00%
Isla mujeres (% dead (SE)) ([5]; Dose 0.2 nm/cm^2, Time 1 hour): 70%
Isla mujeres (% dead (SE)) [5, 19]: 20%
Isla mujeres (% dead (SE)) ([5]; Dose 0.25 nm/cm^2, Time 1 hour): 100%
Isla mujeres (% dead (SE)) [5, 20]: 100%
Isla mujeres (% dead (SE)) ([5]; Dose 2.5 nm/cm^2, Time 1 hour): 100%
Isla mujeres (% dead (SE)) [5, 21]: 100%
toxicity to resistant populations compared with standard compounds ([5]; summary of Table 2): more toxic to resistant populations than permethrin, matfluthrin and transfluthrin
Thai (% dead (SE)) [6, 11]: 15%
Thai (% dead (SE)) [6, 12]: 0%
Thai (% dead (SE)) ([6]; Dose 0.25 nm/cm^2, Time 1 hour): 100%
Thai (% dead (SE)) [6, 20]: 100%
Thai (% dead (SE)) ([6]; Dose 2.5 nm/cm^2, Time 1 hour): 100%
Thai (% dead (SE)) [6, 21]: 100%
contact irritancy (FIG. 1) [7]: showed contact irritancy at relatively low doses
contact irritancy, tolerant strain (FIG. 4) [8]: contact irritants for tolerant strains
contact irritancy and spatial repellency relative to screened compounds (FIG. 3) [9]: superior contact irritancy and spatial repellency relative to most screened compounds
spatial repellency, dose compared with DDT (FIG. 2) [10]: showed repellency at a lower dose than DDT
